Source: patent US12590093B2, “Indolo[2′,3′:3,4]pyrido[2,1-b]quinazoline compound and use thereof” (INSTITUTE OF MEDICINAL BIOTECHNOLOGY CHINESE ACADEMY OF …, priority 2019, dated 2026)
“Also recorded” adds a separate entry of the source.

How the values were obtained:
MAPK signaling pathway = assay: Western-blot of MAPK signaling pathway in ApoE−/− mice; format: in vivo; settings: FIG. 8
Protocol: 6-week-old male C57/BL6 ApoE^−/− mice were fed on normal chaw diet for one week. The mice were randomly divided into three groups (control group, high-fat diet model group, and treatment group, 12 mice per group) according to the body weight. From 7-week-old, the high-fat diet model group and the treatment group were fed on a high fat diet (HFD) (0.15% cholesterol and 20% fat), and the control group was fed on normal chow diet. The treatment group (R3) mice were administered intragastrically with TR3 (5 mg/kg). The control group and the high-fat diet model group mice were intragastrically administered with sodium carboxymethylcellulose (CMC-Na) solution. After 12 weeks of administration, all mice were fasted overnight. The blood sample was taken from the retro-orbital plexus, collected in a EP tube, and then centrifuged for 15 min (2500 rpm). The centrifuged serum (upper layer) was transferred to new EP tubes (divided into two aliquots) and stored at −20° C. for further use. The mice were fixed, and the skin was cut open along the midline of the abdomen to the neck. The abdominal cavity was cut open to collect the fresh liver tissue. The Liver tissue was put into 3 freezing tubes, and then immediately put into liquid nitrogen for subsequent detection of liver lipid detection and extraction of RNA and protein. The thorax was cut open to expose the heart. The heart was perfused with 10 ml PBS, and then fixed by perfusion with 4% paraformaldehyde solution until the liver turned white. The fixed liver was taken out and placed in a six-well plate containing 4% paraformaldehyde solution for further fixation. […]
When animal tissues were used to prepare protein samples, the tissues were firstly homogenized and lysed in the RIPA lysis buffer. […] When cell supernatants were used to prepare protein samples, the supernatants were freeze-dried, needed to be extracted using a protein recovery kit (Applygen, Beijing, China), and then analyzed by western-blot. […]

LXRα = target: T1, LXRα (Homo sapiens, UniProt Q13133); assay: Nuclear receptor reporter gene transient transfection (pBIND-hLXRs-LBD) in HepG2 cells, LXRα; format: cell-based
T1 construct: expressed in transfected cells; host or cells: HepG2
T1 sequence (Q13133 209-447 limits assumed): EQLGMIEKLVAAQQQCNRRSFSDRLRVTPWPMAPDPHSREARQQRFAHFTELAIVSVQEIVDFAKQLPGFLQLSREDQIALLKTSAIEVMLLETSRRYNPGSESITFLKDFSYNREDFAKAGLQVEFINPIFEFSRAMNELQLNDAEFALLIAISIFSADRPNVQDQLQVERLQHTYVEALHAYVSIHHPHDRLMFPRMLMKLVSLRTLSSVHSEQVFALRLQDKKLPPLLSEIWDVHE
Protocol: HepG2 cells in logarithmic growth phase were digested, seeded into the white/clear 96-well plate at a density of 5×10^4 cells/well/100 μL until the cells grew to about 90% confluence and in good condition. 0.5 μL liposome (Lipofectamine® 2000) diluted with blank medium to 25 μL per well and incubated at room temperature for 5 min. The corresponding plasmids DNA (nuclear receptor plasmid:Gal4=1:10) were diluted in blank DMEM medium to 25 μL/well (mixing of two plasmids), then mixed evenly with the diluted liposome, and incubated for 20 min at 37° C. The DNA-liposome complex (50 μL per well) was added with the DMEM complete medium (100 μL per well) and mixed thoroughly to obtain a DNA-liposome complex cell culture. The cell medium was discarded, and replaced with the DNA-liposome complex cell culture (150 μL/well) (37° C., 5% CO2). After 6 h, the DNA-liposome complex cell culture medium was discarded, and 200 μL serum-free DMEM medium containing the compound at an appropriate concentration was added to each test well, and cultured for 18-24 h. The cell Luciferase activity was measured by the method as described in the Luciferase Assay System.

SR-BI = SR-BI up-regulation, luciferase reporter in SR-BI-LUC HepG2 cells; format: cell-based; settings: Homo sapiens, 18 h, maximum up-regulation of luciferase activity versus DMSO, read-out: SR-BI max
Protocol: Experiments were conducted to detect whether the compounds of the disclosure can pharmacologically up-regulate the expression of ABCA1 and SR-BI. Firstly, ABCA1P-LUC HepG2 cells or SR-BI-LUC HepG2 cells in logarithmic growth phase were digested, diluted in cell culture medium, and counted. Cells were seeded into 96-well plates at a density of 5×10^5/ml (100 μL of the single-cell suspension per well). After cells fully adhered (about 6 h), the medium containing 10% FBS was removed, and the cells were gently washed with PBS. Serum free MEM-EBSS medium (200 μL per test well) and 2 μL of the compounds to be tested (at a final concentration of 10 μg/mL) were added to each test well, and meanwhile, DMSO at a corresponding concentration was added to the control well. After 18-24 h, the medium was removed. Cell Luciferase activity was measured by a method as described in the Luciferase Assay System. By optimizing the final concentration of DMSO, the treatment time of the compounds on the cells and the number of cells seeded into each well during the screening, the final screening conditions were determined as follows: each well is seeded with 5×10^4 cells, DMSO is added at a final concentration of 1%, and the sample is treated for 18 h.
The ratio of change of luciferase activity is calculated with the following formula: Ratio of change (%)=A/B×100;
wherein A is the luciferase activity (RLU) measured after the compound to be tested is added, and B is the luciferase activity (RLU) measured after the blank control (DMSO) is added. The luciferase activity of cells in each well was measured, and the dose-effect relationship between the concentration of the compound and the ratio of change of the luciferase activity was determined to calculate the EC50.

AMPK = AMPK level in RAW 264.7 cells by western-blot; format: cell-based, Murine; settings: 1 μM, 18-24 h treatment, FIG. 11
Protocol: Murine macrophages RAW 264.7 cells were subcultured about every 48 h. When the cells were approximately 100% confluent, the old culture medium was removed, and the cells were washed with PBS and digested with trypsin at an appropriate amount for about 2 min at RT. After the digestion solution was removed, the RPMI-1640 complete medium containing 10% FBS was added immediately to inhibit the activity of trypsin. The cells in the culture flask were repeatedly and gently blown with a curved straw, so that they were completely detached from the bottom of the flask and dispersed into the single-cell suspension. The cells were seeded into a new cell flask at a density of 1:4-1:6, and added with an appropriate amount of the complete medium. The flask was placed in an incubator and cultured at 37° C., 5% CO2. RAW264.7 cells were pretreated with si-AMPK (AMPK siRNA) for 24 h, and then treated with compound TR3 (1 μM) for 24 h. The expression of ABCA1 and AMPK was detected by western-blot.
The effect of TR3 on AMPK was detected by western-blot.

With `c1ccc2c(c1)CN1CCc3c([nH]c4ccccc34)C1=N2` [TR3, 5,7,8,13-tetrahydroindolo[2′,3′:3,4]pyrido[2,1-b]quinazoline] the “expression of p-ERK” value (MAPK signaling pathway) was “also inhibited”, the “expression of p-JNK” value (MAPK signaling pathway) was “also inhibited” and the “expression of p-P38” value (MAPK signaling pathway) was “also inhibited”. The LXRα max (LXRα; HepG2 cells, reporter gene, 18-24 h) was 1.36, the LXRα agonist activity (LXRα; result in words) was “showed agonist activity; also recorded: simultaneously activated PPARα/γ/δ and LXRα/β to a certain extent” and the maximal fold induction (SR-BI) was 2.07. For the same molecule, the AMPK level (AMPK) was “significantly up-regulated”.
